Reference: patent US12310986B2, “Compositions and methods for the treatment of cancer cells by induction of cytotoxic oxidative stress” (Board of Regents, The University of Texas System, priority 2018, dated 2025)
Entries after “also recorded” stand apart in the source; their conditions may differ.

How the values were obtained:
[1] = tested on: HCT116 cells; experiment: Apoptosis flow cytometric assay, Annexin V FITC, HCT116 cells; format: cell-based, human; settings: HCT116, 72 hours; VC or D-VC 1 mM, ATO 5 μM
Procedure: FIG. 2: Apoptotic flow cytometric analysis of HCT116 cancer following drug treatments. HCT116 cells were treated with the drugs as described in the FIG. 1 and following treatments the cells were stained with Annexin-V FITC and sorted.
FIG. 3: Graphical representation of apoptosis by flow cytometry data. Apoptotic flow cytometric data shown in the FIG. 2 is presented as a graph.

[2] = tested on: HCT116 cells; experiment: Reactive oxygen species (ROS) detection by flow cytometry, Mito Sox Red, HCT116 cells; format: cell-based, human; settings: VC or D-VC 1 mM, ATO 5 μM
Procedure: FIG. 4: Detection of reactive oxygen species (ROS) by flow cytometry. HCT116 cells were treated with the indicated compounds as described in the FIG. 1 and analyzed by flow cytometry to detect the presence of reactive oxygen species by Mito Sox Red reagent. Mito Sox Red is a reagent from Invitrogen™ catalog #LSM360084
FIG. 5: Graphical representation of the presence of reactive oxygen species (ROS) as detected by flow cytometry. The ROS detection data shown in the FIG. 4 is presented as a graph.
It was anticipated that the cause of cytotoxic stress and apoptosis was the accumulation of reactive oxygen species (ROS), so HCT116 cells were treated as above and assayed for the presence of ROS by flow cytometry (FIG. 4). […] Treatment with 5 μM ATO increased the cells showing ROS accumulation to 26% (FIGS. 4 and 5).

[3] = tested on: HCT116 xenograft tumors; experiment: HCT116 (KRAS mutant) xenograft tumors in nude mice; format: in vivo; settings: VC or D-VC 1.5 g/kg, ATO 7 mg/kg; for effect on tumor growth compared to PBS (control) injections: 15 injections; for scarring on tumors (mice with scarring): 5 mice per group; for tumor weight compared to PBS treated tumors: after 15 injections, one way ANOVA
Procedure: Pictured are the xenograft tumors of each of the 5 mice per treatment condition. Mice were injected intraperitoneally with PBS (control), Vitamin C (1.5 g/kg), D-Vitamin C (1.5 g/kg), ATO 7 mg/kg), ATO (7 mg/kg)+Vitamin C (1.5 g/kg) or ATO (7 mg/kg)+D-Vitamin C (1.5 g/kg). Mice were injected daily for 6 days and after 6th injection mice were rested for one day.
Pictured are the xenograft tumors of each of the 5 mice per treatment condition as described in FIG. 6 after 12 injections (2 weeks of treatment).
To avoid glucose fluctuations in blood, the food was withdrawn from mice 2 hrs prior drug injections and food was given back to mice after 2 hrs of the VC or D-VC injection.
1.5 million human HCT116 (KRAS mutant) cancer cells were injected into nude mice, 5 mice per experimental group. After 10 days, and after when tumors reached at least 0.8 cm in size, mice were injected daily with either PBS, PBS+1.5 g/kg vitamin C, PBS+7 mg/kg ATO. PBS+7 mg/kg ATO+1.5 g/kg vitamin C, PBS+1.5 g/kg D-Vitamin C, or PBS+7 mg/kg ATO+1.5 g/kg D-Vitamin C. The mice were injected daily, 6 times per week, and rested one day per week, for a total of 15 total drug injections. […] Initially, ATO was injected at 3 mg/kg, while vitamin C or D-VC were injected at 1 g/kg. The following day, ATO was used at 7 mg/kg, while vitamin C and D-VC were used at […].
The injection scheme was ATO injection/2 hour gap/vitamin C or D-VC injection. […] Further, it is also known that the effect of vitamin C treatment on KRAS mutant cancer cells is glucose dependent, To avoid glucose fluctuations in the blood and enhance the effect of vitamin C and D-VC, the drug injections were performed following withdrawal of the food from mice 2 hours prior ATO injections, and the food was only provided again 2 hours following the vitamin C or D-VC injections.

[4] = tested on: HCT116 cancer cells; experiment: Cytotoxicity in colorectal HCT116 cancer cells, 72 hours treatment (cell images); format: cell-based, human; settings: HCT116, 72 hours; VC or D-VC 1 mM, ATO 5 μM; compared to buffer
Procedure: Colorectal HCT116 cancer cells were treated with the indicated solutions for 72 hours: control (phosphate buffered saline, PBS, was added to the culture medium in 1:1000 dilution), VC 1 mM (Vitamin C was used at 1 mM concentration), D-VC 1 mM (D-Vitamin C was used at 1 mM concentration), ATO 5 μM (Arsenic Trioxide was used at 5 μM concentration) and the combination of VC 1 mM with ATO 5 μM or D-VC 1 mM with ATO 5 μM. The cell images are shown with the labeling indicating cell treatments.
Colorectal HCT116 cancer cells were treated for 72 hours with PBS, a 1 mM Vitamin C (VC) solution, 1 mM D-Vitamin CVC (D-VC also referred as D-ascorbic acid), 5 μM arsenic trioxide (ATO), Vitamin C and ATO (VC/ATO), or D-VC and ATO (D-VC/ATO) (FIG. 1).

[5] = after 12 injections (2 weeks of treatment)

Compound | apoptosis (Annexin V FITC) [1] | cells accumulating ROS [2] | effect on tumor growth compared to PBS (control) injections [3] | scarring on tumors (mice with scarring) ([3]; after 9 injections / within the first week of injections, intraperitoneally) | scarring on tumors (mice with scarring) [3, 5] | tumor weight compared to PBS treated tumors [3] | cytotoxicity [4]
O=C1O[C@@H]([C@H](O)CO)C(O)=C1O [D-VC, D-ascorbic acid] | level of apoptosis similar to the buffer control | about 5% | inhibitory effect on tumor growth; also recorded: appeared to be more effective alone but its effect was not consistent | 2/5 | 2/5 | lower compared to the PBS treated tumors, however these differences were not statistically significant | –
O=C1O[C@H]([C@@H](O)CO)C(O)=C1O [VC, L-ascorbic acid] | level of apoptosis similar to the buffer control | about 5% | inhibitory effect on tumor growth | – | – | lower compared to the PBS treated tumors, however these differences were not statistically significant | –
arsenic trioxide [ATO] | low increase in apoptosis over the buffer control | 26% | inhibitory effect on tumor growth | – | 2/5 | lower compared to the PBS treated tumors, however these differences were not statistically significant | mild cytotoxic impact
